Experimental findings from patent US20250388582A1, “NOVEL BICYCLIC HETEROARYL COMPOUND AND USE THEREOF” (ILDONG PHARMACEUTICAL CO., LTD., priority 2022, published 2025) are described below.

One series addresses T1, PIKFYVE (Homo sapiens, UniProt Q9Y2I7).
T1 construct: host or cells: HEK293 (ATCC, CRL-1573)
Nature of the series: NanoBRET TE Intracellular Kinase Assay, interaction of PIKFYVE and compounds in HEK293 cells. Type of series: cell-based. Particulars: IC50 class from BRET; HEK293 cells expressing PIKFYVE-NanoLuc; 2 hours incubation. An outline of the steps: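 HEK293 cells transiently expressing a PIKFYVE-NanoLuc fusion were incubated 2 h at 37 °C, 5% CO2 with compound plus NanoBRET tracer. BRET was read after adding Nano-Glo substrate, giving intracellular target engagement by tracer displacement.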
A general note: Bioluminescence resonance energy transfer reports proximity on the nanometre scale.

Series [1] can be described thus: Microsomal metabolic stability assay. The class given is in vitro ADME, human or CD1 male mouse. To be noted: Clint class; 1 μM compound, 0.5 mg/ml microsomes, NADPH, UDPGA, Alamethicin; species not given. Here is the method: The microsomal metabolic stability assay was performed using pooled human or CD1 male mouse interspecies microsomes. Supplemental cofactors (NADPH, UDPGA) and microsomal membrane pore-forming factor (Alamethicin) were added to promote cytochrome P450 (CYP), UGT reactivity to the target compound. Test compounds (1 μM incubation concentration) and microsomes (0.5 mg/ml incubation concentration) were diluted in 0.1 M phosphate buffer, pH 7.4, and incubated (37° C.). The reaction was initiated by the addition of NADPH (1 mM), UDPGA (1 mM) and Alamethicin (25 μg/mg). The incubation times were 0, 5, 15, 30, and 45 minutes, and at each time point, the reaction was terminated by adding acetonitrile containing internal standard (IS)(1:3 ratio). The plate was then sealed, centrifuged (3000 rpm, 20 min, 4° C.), and the supernatant was analyzed by LC-MS/MS. Hepatic extraction ratio values were calculated from the measured in vitro clearance and Intrinsic clearance (Clint) values were calculated from the assay results, and the respective Clint values were categorized into Low, Medium, and High categories based on the reference document (ref. Prostaglandins & other lipid mediators 136 (2018): 90-95).

In a further series the target is T2, human GST-PIKFYVE (Homo sapiens, UniProt Q9Y2I7).
T2 construct: GST; purchased Carna biosciences 11-118
T2 sequence (Q9Y2I7 whole entry): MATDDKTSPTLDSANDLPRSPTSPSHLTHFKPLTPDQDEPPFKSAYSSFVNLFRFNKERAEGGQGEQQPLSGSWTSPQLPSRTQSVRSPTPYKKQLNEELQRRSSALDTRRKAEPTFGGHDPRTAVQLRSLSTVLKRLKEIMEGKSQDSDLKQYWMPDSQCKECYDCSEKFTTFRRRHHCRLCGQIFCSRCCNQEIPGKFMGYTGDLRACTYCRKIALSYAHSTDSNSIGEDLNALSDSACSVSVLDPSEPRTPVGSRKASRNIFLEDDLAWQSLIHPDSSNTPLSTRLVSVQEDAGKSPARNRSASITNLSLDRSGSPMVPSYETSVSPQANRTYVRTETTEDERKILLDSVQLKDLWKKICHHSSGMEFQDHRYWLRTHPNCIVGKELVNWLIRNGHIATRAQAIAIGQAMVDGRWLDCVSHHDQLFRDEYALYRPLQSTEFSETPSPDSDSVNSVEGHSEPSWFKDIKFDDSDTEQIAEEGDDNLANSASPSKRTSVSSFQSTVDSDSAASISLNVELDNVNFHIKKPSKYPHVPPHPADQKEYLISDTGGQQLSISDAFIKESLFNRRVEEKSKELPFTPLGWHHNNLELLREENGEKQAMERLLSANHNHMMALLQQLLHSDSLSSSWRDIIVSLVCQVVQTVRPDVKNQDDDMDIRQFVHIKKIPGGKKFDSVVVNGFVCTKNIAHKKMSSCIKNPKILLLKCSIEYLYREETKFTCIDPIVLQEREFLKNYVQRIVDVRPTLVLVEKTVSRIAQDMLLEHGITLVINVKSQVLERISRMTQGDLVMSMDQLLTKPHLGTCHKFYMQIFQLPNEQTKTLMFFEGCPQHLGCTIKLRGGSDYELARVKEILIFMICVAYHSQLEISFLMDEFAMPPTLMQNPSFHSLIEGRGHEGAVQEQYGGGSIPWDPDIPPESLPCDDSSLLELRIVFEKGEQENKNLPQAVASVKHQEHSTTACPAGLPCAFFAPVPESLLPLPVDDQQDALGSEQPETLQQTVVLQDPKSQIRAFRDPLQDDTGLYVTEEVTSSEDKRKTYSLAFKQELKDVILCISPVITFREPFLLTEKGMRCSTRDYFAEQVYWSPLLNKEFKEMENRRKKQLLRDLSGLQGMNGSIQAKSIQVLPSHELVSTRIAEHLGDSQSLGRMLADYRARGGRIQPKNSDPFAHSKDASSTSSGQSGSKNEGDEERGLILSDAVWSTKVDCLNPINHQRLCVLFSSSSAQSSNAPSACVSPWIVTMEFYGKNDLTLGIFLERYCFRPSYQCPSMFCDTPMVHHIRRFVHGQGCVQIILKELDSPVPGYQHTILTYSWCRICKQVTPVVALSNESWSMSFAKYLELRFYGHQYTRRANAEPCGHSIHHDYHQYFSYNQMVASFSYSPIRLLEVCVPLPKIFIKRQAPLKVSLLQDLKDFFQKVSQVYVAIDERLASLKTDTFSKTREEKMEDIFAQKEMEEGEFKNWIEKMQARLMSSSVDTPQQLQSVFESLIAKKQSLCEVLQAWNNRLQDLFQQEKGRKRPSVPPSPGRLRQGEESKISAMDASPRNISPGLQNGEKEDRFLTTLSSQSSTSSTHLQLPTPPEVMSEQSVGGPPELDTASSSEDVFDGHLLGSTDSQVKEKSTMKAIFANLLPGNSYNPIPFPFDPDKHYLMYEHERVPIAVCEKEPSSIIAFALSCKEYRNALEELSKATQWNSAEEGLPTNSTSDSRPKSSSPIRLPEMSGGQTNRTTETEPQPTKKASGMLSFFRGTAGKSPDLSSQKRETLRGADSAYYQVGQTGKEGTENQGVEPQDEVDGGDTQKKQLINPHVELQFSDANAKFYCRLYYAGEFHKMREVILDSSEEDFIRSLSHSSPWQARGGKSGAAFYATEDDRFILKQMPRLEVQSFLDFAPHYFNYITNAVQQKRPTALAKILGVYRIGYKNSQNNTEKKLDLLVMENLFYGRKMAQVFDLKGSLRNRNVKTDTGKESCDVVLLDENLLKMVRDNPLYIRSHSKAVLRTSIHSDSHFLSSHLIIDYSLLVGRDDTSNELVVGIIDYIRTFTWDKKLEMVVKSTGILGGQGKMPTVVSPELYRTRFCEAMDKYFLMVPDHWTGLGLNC
Description: ADP-Glo kinase assay, enzyme inhibition activity against human PIKFYVE (Carna biosciences). Type of series: biochemical. To be noted: inhibitory activity at final compound concentration 10 nM; 1 hour at room temperature. A digest of the protocol: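 Human GST-PIKFYVE (glutathione Sepharose-purified) was reacted with substrate and ATP for 1 h at room temperature in 50 mM MOPS, 1 mM DTT, pH 7.2, with compound at 10 nM final. ADP formed was read by ADP-Glo luminescence; inhibition was calculated against no-enzyme (100%) and no-compound (0%) controls.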

T1 sequence (Q9Y2I7 whole entry): as above

Regarding `C(=N\Nc1nc(N2CCOCC2)nc2c1ncn2-c1ccccc1)/c1c[nH]c2ccccc12` [Example 132, (E)-4-(6-(2-((1H-indol-3-yl)methylene)hydrazinyl)-9-phenyl-9H-purin-2-yl)morpholine], at PIKFYVE, the IC50 was no more than 0.01 µM. The Microsomal metabolic stability entry in series [1] is given as “Medium (Medium 8.8~48,)”. For the same compound, the “ADP-Glo kinase assay (%, 10 nM)” value on human GST-PIKFYVE amounted to 86.76%.
For `Cc1cccc(-c2ccn(-c3nc(N4CCOCC4)nc4c3ncn4CC(=O)c3ccccn3)n2)c1` [Example 64, 2-(2-morpholino-6-(3-(m-tolyl)-1H-pyrazol-1-yl)-9H-purin-9-yl)-1-(pyridin-2-yl)ethan-1-one] the same measures were no more than 0.01 µM, “Medium (Medium 8.8~48,)” and 82.48%.
For `Cc1cccc(/C=N/Nc2nc(N3CCOCC3)nc3c2ncn3-c2cccnc2C)c1` [Example 109, (E)-4-(6-(2-(3-methylbenzylidene)hydrazinyl)-9-(2-methylpyridin-3-yl)-9H-purin-2-yl)morpholine], in that order: 0.01 to 0.02 µM, “Medium (Medium 8.8~48,)” and 79.21%.
Compound `Cc1cccc(-c2ccn(-c3nc(N4CCOCC4)nc4c3ncn4-c3ccccc3)n2)c1` [Example 136, 4-(9-phenyl-6-(3-(m-tolyl)-1H-pyrazol-1-yl)-9H-purin-2-yl)morpholine] registered an IC50 on PIKFYVE of no more than 0.01 µM. In addition, the Microsomal metabolic stability result in series [1] is recorded as “Medium (Medium 8.8~48,)”. For the same compound, the “ADP-Glo kinase assay (%, 10 nM)” value at human GST-PIKFYVE was found to be 78.65%.
For `Cc1cccc(/C=N/Nc2nc(N3CCOCC3)nc3c2ncn3CC(=O)c2ccccn2)c1` [Example 23, (E)-2-(6-(2-(3-methylbenzylidene)hydrazinyl)-2-morpholino-9H-purin-9-yl)-1-(pyridin-2-yl)ethan-1-one], in that order: no more than 0.01 µM, “Medium (Medium 8.8~48,)” and 90.82%.
For `Cc1cccc(/C=N/Nc2nc(N3CCOCC3)nc3c(-c4cccnc4)cccc23)c1` [Example 215, (E)-4-(4-(2-(3-methylbenzylidene)hydrazinyl)-8-(pyridin-3-yl)quinazolin-2-yl)morpholine], in that order: no more than 0.01 µM, “Medium (Medium 8.8~48,)” and 81.70%.

Broadly, the IC50 is the concentration needed to halve the response being measured. Read a low IC50 as greater potency in that assay.
